Assay [1] has as its target T1, lipoxygenase derived from rat basophilic leukemia (RBL-1) cells (Rattus norvegicus, UniProt P12527).
T1 construct: Single cell suspensions of RBL-1 cells are homogenized to obtain the microsomal fraction containing lipoxygenase and cyclooxygenase; endogenous in cells; host or cells: RBL-1 (rat basophilic leukemia) cells, homogenate/microsomal fraction
T1 sequence (P12527 1-673): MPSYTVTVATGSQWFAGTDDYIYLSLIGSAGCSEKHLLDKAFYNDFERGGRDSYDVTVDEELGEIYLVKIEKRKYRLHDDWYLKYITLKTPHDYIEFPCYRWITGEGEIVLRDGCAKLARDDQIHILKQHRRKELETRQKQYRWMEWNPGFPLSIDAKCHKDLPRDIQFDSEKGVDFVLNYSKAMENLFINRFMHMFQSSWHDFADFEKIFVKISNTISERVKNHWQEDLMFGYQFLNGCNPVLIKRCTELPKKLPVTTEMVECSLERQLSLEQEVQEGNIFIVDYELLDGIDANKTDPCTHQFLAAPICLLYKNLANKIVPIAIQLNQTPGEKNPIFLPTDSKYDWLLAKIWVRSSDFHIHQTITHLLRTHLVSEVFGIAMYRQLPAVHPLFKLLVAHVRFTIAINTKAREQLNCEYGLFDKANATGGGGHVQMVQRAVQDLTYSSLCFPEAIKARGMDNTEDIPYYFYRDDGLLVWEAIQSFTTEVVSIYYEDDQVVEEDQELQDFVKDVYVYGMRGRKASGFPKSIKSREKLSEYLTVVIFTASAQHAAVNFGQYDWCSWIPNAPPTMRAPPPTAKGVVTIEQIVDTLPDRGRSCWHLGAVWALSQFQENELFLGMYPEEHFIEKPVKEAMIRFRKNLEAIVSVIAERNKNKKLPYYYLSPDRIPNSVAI
The experiment in a line: % inhibition of formation of lipoxygenase products 5,12-di-HETE (L1) and 5-HETE (L2) in RBL-1 microsomal homogenate. Type of assay: biochemical. Details: inhibition: dose or concentration left out as unconfirmed. The procedure:
(§1) The primary screening test used is a determination of the inhibition of lipoxygenase and cyclooxygenase derived from rat basophilic leukemia (RBL-1) cells. The test was carried out according to the following procedure:
(§2) Single cell suspensions of RBL-1 cells are homogenized to obtain the microsomal fraction containing lipoxygenase and cyclooxygenase. Test compounds are added to the enzyme-containing homogenate for a 5 min. preincubation period at 37° C. prior to the addition of ^14 C-arachidonic acid substrate. Following incubation at 37° C. for 15 min., the reaction is stopped by the addition of 2M formic acid and the enzyme-substrate products are extracted into chloroform. An aliquot of the extract is evaporated to dryness, reconstituted in ether to 1/10 original volume, spotted on thin layer chromatography plates and chromatographed. The peak areas of radioactivity representing the products are located by scanning the plates. The quantity of products formed is estimated by measuring the height of the radioactivity peaks observed on the chromatographic scans. Alternatively, the areas of radioactivity are scraped from the plate and the ^14 C quantitated by scintillation counting. The percent inhibition in the formation of the cyclooxygenase product prostaglandin D2, designated as C1, and lipoxygenase products 5,12-di-HETE and 5-HETE, designated L1 and L2 respectively, are shown. Compounds with >50% inhibition of L1 and L2 at a screening concentration of 1 μM are considered active.

The target in assay [2] is T2, cyclooxygenase derived from rat basophilic leukemia (RBL-1) cells (Rattus norvegicus, UniProt Q63921).
T2 construct: Single cell suspensions of RBL-1 cells are homogenized to obtain the microsomal fraction containing lipoxygenase and cyclooxygenase; endogenous in cells; host or cells: RBL-1 (rat basophilic leukemia) cells, homogenate/microsomal fraction
T2 sequence (Q63921 27-602): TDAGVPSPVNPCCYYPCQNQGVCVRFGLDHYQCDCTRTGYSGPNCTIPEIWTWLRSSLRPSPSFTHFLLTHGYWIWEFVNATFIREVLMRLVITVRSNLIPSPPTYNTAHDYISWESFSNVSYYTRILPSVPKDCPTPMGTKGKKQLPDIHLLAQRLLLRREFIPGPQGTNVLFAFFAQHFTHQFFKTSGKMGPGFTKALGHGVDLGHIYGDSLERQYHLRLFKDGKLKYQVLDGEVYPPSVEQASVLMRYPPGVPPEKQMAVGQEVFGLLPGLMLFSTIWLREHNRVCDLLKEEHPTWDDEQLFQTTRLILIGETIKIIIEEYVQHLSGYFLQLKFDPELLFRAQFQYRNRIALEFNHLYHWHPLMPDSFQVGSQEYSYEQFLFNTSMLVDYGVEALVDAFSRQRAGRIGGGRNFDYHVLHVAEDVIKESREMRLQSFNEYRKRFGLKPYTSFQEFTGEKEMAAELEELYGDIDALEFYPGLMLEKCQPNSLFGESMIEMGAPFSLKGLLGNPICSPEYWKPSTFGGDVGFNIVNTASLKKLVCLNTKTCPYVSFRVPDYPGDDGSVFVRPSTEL
The assay can be described thus: % inhibition of formation of cyclooxygenase product prostaglandin D2 (C1) in RBL-1 microsomal homogenate. Type of assay: biochemical. Details: inhibition: dose or concentration left out as unconfirmed. To be noted: read-out: % Inhibition in vitro, C1 (prostaglandin D2). As for the experimental part: as §1, §2

Assay [3] relates to SRS-A component of immunologically induced bronchoconstriction. The assay can be described thus: effect on the SRS-A component of immunologically induced bronchoconstriction in guinea pigs. Type of assay: in vivo. The following applies: guinea pig. The procedure:
The test was carried out according to the following procedure: Outbred female guinea pigs were sensitized to egg albumin by a 1 mL ip injection of a 1 mg/mL egg albumin alum suspension. Twelve to sixteen days after immunization, the animals were used for the test. They were anesthetized with urethane (1.5 gm/kg ip) and surgically prepared with a jugular vein canula connected to a three-way stopcock for administration of drugs and antigen challenge. The trachea was cannulated and the animal artifically respired. The intratracheal pressure was continuously recorded and expressed in mm Hg. Naproxen sodium (10 mg/kg) and pyrilamine maleate (0.3 mg/kg) in phosphate buffered saline, pH 7.2, were administered intravenously in a single solution seven minutes prior to antigen challenge. Propranolol (0.1 mg/kg) was also given iv three minutes prior to challenge with egg albumin (300 μg/kg iv). The animals were dosed orally with compounds in water or in a vehicle of 3% corn starch, 5% polyethylene glycol 400, and 0.34% Tween 8™ in water at one or four hours before challenge. Results were recorded as the maximum increase in intratracheal pressure following antigen challenge. Activity of the compounds was measured as percent inhibition of the mean peak intratracheal pressure in the group of dosed animals in comparison to the mean peak intratracheal pressure in the group of vehicle treated animals. The results are expressed in terms of % inhibition.

[4] abbreviates: 0.25 h, line carries a superscript without letter (probably footnote a, 0.1 μM), read-out: % Inhibition in vitro, L1 (5,12-di-HETE).
The mark [5] stands for this setting: 0.25 h, line carries a superscript without letter (probably footnote a, 0.1 μM), read-out: % Inhibition in vitro, L2 (5-HETE).
Where [6] appears, read: 0.25 h, line carries a superscript without letter (probably footnote a, 0.1 μM).
[7] abbreviates: read-out: % Inhibition in vitro, L1 (5,12-di-HETE).
The mark [8] stands for this setting: read-out: % Inhibition in vitro, L2 (5-HETE).
[9] abbreviates: 100 mg/kg p.o., at 1 hour before challenge.
Setting [10] is: 100 mg/kg p.o., at 4 hours before challenge.

Counter-ions that a name gives are not always drawn. Like-named read-outs stand apart in the source and are kept apart here.

For the molecule `N#CCCCCNc1ccc(O)cc1` [Example 1c, 5-[(4-Hydroxyphenyl)amino]pentanenitrile], the inhibition (usually the share of the control response that was lost under treatment) at 1 µM in assay [1] (setting [4]) came to 100%; in assay [1] (setting [5]), 100%; in assay [2] (setting [6]) it was 0%.
For `N#CCCCCCCNc1ccc(O)cc1` [Example 2d, 7-[(4-Hydroxyphenyl)amino]heptanenitrile], the inhibition at 1 µM came out at 92% in assay [1] (setting [7]), 98% in assay [1] (setting [8]) and 42% in assay [2]. Further, the “% Inhibition in vivo (mean peak intratracheal pressure)” value (from here on “% Inhibition in vivo”) in assay [3] (setting [9]) was found to be 66%; in assay [3] (setting [10]) it was 61%.
With `Cl.N#CCCCCCCNc1ccccc1O` [Example 3c, 7-[(2-Hydroxyphenyl)amino]heptanenitrile monohydrochloride], the values for the inhibition in assay [1] (setting [8]) and in assay [2] were 100% and 0%, respectively. The “% Inhibition in vivo” value in assay [3] (setting [9]) was determined as 4%; in assay [3] (setting [10]), 11%.
Consider `N#CCCCCCCCNc1ccc(O)cc1.O=C(O)/C=C\C(=O)O` [Example 4c, 8-[(4-Hydroxyphenyl)amino]octanenitrile (Z)-2-butenedioate], for which the inhibition at 1 µM in assay [1] (setting [4]) was determined as 100%; in assay [1] (setting [5]), 100%; in assay [2] (setting [6]), 0%. Moreover, the results for the “% Inhibition in vivo” value in assay [3] (setting [9]) and in assay [3] (setting [10]) were 17% and 76%, respectively.
For `N#CCCCCCCCCNc1ccc(O)cc1.O=C(O)/C=C\C(=O)O` [Example 5c, 9-[(4-Hydroxyphenyl)amino]nonanenitrile (Z)-2-butenedioate], the results for the inhibition in assay [1] (setting [7]), in assay [1] (setting [8]) and in assay [2] were 82%, 95% and 0%, respectively. Moreover, the “% Inhibition in vivo” value in assay [3] (setting [9]) was determined as 0%; in assay [3] (setting [10]) it was 25%.
As for `CN(CCCCCCC#N)c1ccc(O)cc1` [Example 6c], the inhibition at 1 µM was 100% in assay [1] (setting [4]), 100% in assay [1] (setting [5]) and 28% in assay [2] (setting [6]). Besides, the “% Inhibition in vivo” value in assay [3] (setting [9]) stood at 6%.
As to `CC(=O)Oc1ccc(N(C)CCCCCCC#N)cc1` [Example 6d, 7-[[4-(Acetyloxy)phenyl]methylamino]heptanenitrile], the inhibition in assay [1] (setting [7]) was 91%; in assay [1] (setting [8]), 85%; in assay [2] it was 14%.
Consider `Cc1cc(O)ccc1NCCCCCCC#N.Cl` [Example 7c, 7-[(4-Hydroxy-2-methylphenyl)amino]heptanenitrile monohydrochloride], for which the inhibition was found to be 65% in assay [1] (setting [8]) and 0% in assay [2]. In addition, the “% Inhibition in vivo” value in assay [3] (300 mg/kg p.o. (footnote b), at 1 hour before challenge) worked out at 66%; in assay [3] (300 mg/kg p.o. (footnote b), at 4 hours before challenge), 86%.
Consider `Cc1cc(NCCCCCCC#N)ccc1O` [Example 8c, 7-[(4-Hydroxy-3-methylphenyl)amino]heptanenitrile monohydrochloride], for which the inhibition at 1 µM in assay [1] (setting [4]) was 100%; in assay [1] (setting [5]), 100%; in assay [2] (setting [6]), 13%.
Regarding `N#CCCCCCCNc1cc(Cl)c(O)c(Cl)c1` [Example 9c, 7-[(3,5-Dichloro-4-hydroxyphenyl)amino]heptanenitrile monohydrochloride], the inhibition was 95% in assay [1] (setting [8]) and 9% in assay [2].
As to `N#CCCCCCCNc1ccc(O)c(CO)c1` [Example 10c, 7-[[4-Hydroxy-3-(hydroxymethyl)phenyl]amino]heptanenitrile monohydrochloride], the inhibition at 1 µM was found to be 100% in assay [1] (setting [4]), 100% in assay [1] (setting [5]) and 10% in assay [2] (setting [6]).
For `Cl.N#CCCCCCCNc1ccc(O)cc1F` [Example 11c, 7-[(2-Fluoro-4-hydroxyphenyl)amino]heptanenitrile monohydrochloride], the inhibition was 86% in assay [1] (setting [7]), 93% in assay [1] (setting [8]) and 22% in assay [2]. Moreover, the “% Inhibition in vivo” value in assay [3] (setting [9]) is on record as 7%; in assay [3] (setting [10]), 30%.
